Experiments:
Assay type in all cases: in vivo
[1] = test system: blackgrass (Alopecurus myosuroides); assay: Test A postemergence application, visual injury rating 0-100
Source text: (§1) Seeds of plant species selected from barnyardgrass (Echinochloa crus-galli), blackgrass (Alopecurus myosuroides), corn (Zea mays), foxtail, giant (giant foxtail, Setaria faberi), green foxtail (Setaria viridis), goosegrass (Eleusine indica), kochia (Bassia scoparia), oat, wild (wild oat, Avena fatua), palmer (palmer amaranth, palmer pigweed, Amaranthus palmeri), ragweed (common ragweed, Ambrosia artemisiifolia), ryegrass, Italian (italian ryegrass, Lolium multiflorum), soybean (Glycine max) and wheat (Triticum aestivum) were planted into a blend of loam soil and sand and treated preemergence with a directed soil spray using test chemicals formulated in a non-phytotoxic solvent mixture which included a surfactant.
(§2) At the same time, plants selected from these crops and weed species and also galium (catchweed bedstraw, Galium aparine) and horseweed (Erigeron canadensis) were planted in pots containing the same blend of loam soil and sand and treated with postemergence applications of test chemicals formulated in the same manner. Plants ranged in height from 2 to 10 cm and were in the one- to two-leaf stage for the postemergence treatment. Treated plants and untreated controls were maintained in a greenhouse for 10 days, after which time all treated plants were compared to untreated controls and visually evaluated for injury. Plant response ratings, summarized in Table A, are based on a 0 to 100 scale where 0 is no effect and 100 is complete control. A dash (-) response means no test result.

[2] = test system: horseweed (Erigeron canadensis); assay: as above
Source text: as §1, §2

[3] = test system: wheat (Triticum aestivum); assay: as above
Source text: as §1, §2

[4] = test system: barnyardgrass (Echinochloa crus-galli); assay: as above
Source text: as §1, §2

[5] = test system: oat, wild (wild oat, Avena fatua); assay: as above
Source text: as §1, §2

[6] = test system: green foxtail (Setaria viridis); assay: as above
Source text: as §1, §2

kochia (Bassia scoparia) [7] = assay: as above
Source text: as §1, §2

[8] = test system: ragweed (common ragweed, Ambrosia artemisiifolia); assay: as above
Source text: as §1, §2

corn (Zea mays) [9] = assay: as above
Source text: as §1, §2

[10] = test system: palmer (palmer amaranth, palmer pigweed, Amaranthus palmeri); assay: as above
Source text: as §1, §2

soybean (Glycine max) [11] = assay: as above
Source text: as §1, §2

[12] = test system: ryegrass, Italian (italian ryegrass, Lolium multiflorum); assay: as above
Source text: as §1, §2

[13] = test system: blackgrass (Alopecurus myosuroides); assay: Test A preemergence soil spray, visual injury rating 0-100; conditions: 10 days
In short: (§3)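 Plants in a loam and sand soil blend were treated with each test chemical, in a non-phytotoxic solvent system including surfactant, either sprayed on seeded soil before emergence or applied after emergence at the one- to two-leaf stage. Ten days later in the greenhouse, plants were compared with untreated controls and visually rated from 0 (no effect) to 100 (complete control).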

[14] = test system: wheat (Triticum aestivum); assay: as above; conditions: 10 days
In short: as §3

[15] = test system: barnyardgrass (Echinochloa crus-galli); assay: as above; conditions: 10 days
In short: as §3

[16] = test system: oat, wild (wild oat, Avena fatua); assay: as above; conditions: 10 days
In short: as §3

[17] = test system: green foxtail (Setaria viridis); assay: as above; conditions: 10 days
In short: as §3

kochia (Bassia scoparia) [18] = assay: as above; conditions: 10 days
In short: as §3

[19] = test system: ragweed (common ragweed, Ambrosia artemisiifolia); assay: as above; conditions: 10 days
In short: as §3

corn (Zea mays) [20] = assay: as above; conditions: 10 days
In short: as §3

[21] = test system: palmer (palmer amaranth, palmer pigweed, Amaranthus palmeri); assay: as above; conditions: 10 days
In short: as §3

soybean (Glycine max) [22] = assay: as above; conditions: 10 days
In short: as §3

[23] = test system: ryegrass, Italian (italian ryegrass, Lolium multiflorum); assay: as above; conditions: 10 days
In short: as §3

rice (Oryza sativa) = assay: Test B flooded paddy test, visual plant response rating 0-100; conditions: 250 g ai/ha, Flood, applied to paddy water, evaluated after 13 days
In short: (§4)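 Plants were grown to the 2-leaf stage, then pots were flooded to 3 cm above the soil and compound was applied directly to the paddy water, with that depth kept throughout.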

[24] = test system: barnyardgrass (Echinochloa crusgalli); assay: as above; conditions: 250 g ai/ha, Flood, applied to paddy water, evaluated after 13 days
In short: as §4

[25] = test system: ducksalad (Heteranthera limosa); assay: as above; conditions: 250 g ai/ha, Flood, applied to paddy water, evaluated after 13 days
In short: as §4

[26] = test system: sedge, umbrella (small-flower umbrella sedge, Cyperus difformis); assay: as above; conditions: 250 g ai/ha, Flood, applied to paddy water, evaluated after 13 days
In short: as §4

[27] = 62 g ai/ha, postemergence, 10 days, 0 = no effect, 100 = complete control
[28] = Postemergence, 16 g ai/ha, greenhouse 10 days, 0 no effect, 100 complete control
[29] = 62 g ai/ha, 0 = no effect, 100 = complete control

SMILES: CC1(C(=O)NC2C=CC(C(=O)NO)C2)CN(c2cc(F)cc(F)c2)C(=O)O1 (centres unmarked) [Compound 137]
- Blackgrass plant response rating (0-100) [1, 27]: 60
- Blackgrass plant response rating (0 to 100 scale) [1, 28]: 0
- Horseweed plant response rating (0-100) [2, 27]: 50
- Horseweed plant response rating (0 to 100 scale) [2, 28]: 0
- Wheat plant response rating (0-100) [3, 27]: 70
- Wheat plant response rating (0 to 100 scale) [3, 28]: 0
- Barnyardgrass plant response rating (0-100) [4, 27]: 70
- Barnyardgrass plant response rating (0 to 100 scale) [4, 28]: 0
- Oat, Wild plant response rating (0-100) [5, 27]: 30
- Oat, Wild plant response rating (0 to 100 scale) [5, 28]: 0
- Foxtail, Green plant response rating (0-100) [6, 27]: 10
- Foxtail, Green plant response rating (0 to 100 scale) [6, 28]: 0
- Kochia plant response rating (0-100) (kochia (Bassia scoparia) [7]; [27]): 50
- Kochia plant response rating (0 to 100 scale) (kochia (Bassia scoparia) [7]; [28]): 0
- Ragweed plant response rating (0-100) [8, 27]: 0
- Ragweed plant response rating (0 to 100 scale) [8, 28]: 0
- Corn plant response rating (0-100) (corn (Zea mays) [9]; [27]): 50
- Corn plant response rating (0 to 100 scale) (corn (Zea mays) [9]; [28]): 10
- Pigweed, Palmer plant response rating (0-100) [10, 27]: 30
- Pigweed, Palmer plant response rating (0 to 100 scale) [10, 28]: 0
- Soybean plant response rating (0-100) (soybean (Glycine max) [11]; [27]): 60
- Soybean plant response rating (0 to 100 scale) (soybean (Glycine max) [11]; [28]): 0
- Ryegrass, Italian plant response rating (0-100) [12, 27]: 30
- Ryegrass, Italian plant response rating (0 to 100 scale) [12, 28]: 0
- Blackgrass plant response rating ([13]; 16 g ai/ha, 0 to 100 scale): 0
- Blackgrass plant response rating (0-100) [13, 29]: 50
- Wheat plant response rating ([14]; 16 g ai/ha, 0 to 100 scale): 20
- Wheat plant response rating (0-100) [14, 29]: 90
- Barnyardgrass plant response rating ([15]; 16 g ai/ha, 0 to 100 scale): 0
- Barnyardgrass plant response rating (0-100) [15, 29]: 60
- Oat, Wild plant response rating ([16]; 16 g ai/ha, 0 to 100 scale): 0
- Oat, Wild plant response rating (0-100) [16, 29]: 30
- Foxtail, Green plant response rating ([17]; 16 g ai/ha, 0 to 100 scale): 0
- Foxtail, Green plant response rating (0-100) [17, 29]: 30
- Kochia plant response rating (kochia (Bassia scoparia) [18]; 16 g ai/ha, 0 to 100 scale): 0
- Kochia plant response rating (0-100) (kochia (Bassia scoparia) [18]; [29]): 90
- Ragweed plant response rating ([19]; 16 g ai/ha, 0 to 100 scale): 0
- Ragweed plant response rating (0-100) [19, 29]: 0
- Corn plant response rating (corn (Zea mays) [20]; 16 g ai/ha, 0 to 100 scale): 0
- Corn plant response rating (0-100) (corn (Zea mays) [20]; [29]): 10
- Pigweed, Palmer plant response rating ([21]; 16 g ai/ha, 0 to 100 scale): 20
- Pigweed, Palmer plant response rating (0-100) [21, 29]: 70
- Soybean plant response rating (soybean (Glycine max) [22]; 16 g ai/ha, 0 to 100 scale): 0
- Soybean plant response rating (0-100) (soybean (Glycine max) [22]; [29]): 50
- Ryegrass, Italian plant response rating ([23]; 16 g ai/ha, 0 to 100 scale): 30
- Ryegrass, Italian plant response rating (0-100) [23, 29]: 60
- Plant response rating, Rice (0 to 100 scale, 0 is no effect and 100 is complete control) (rice (Oryza sativa)): 0
- Plant response rating, Barnyardgrass (0 to 100 scale, 0 is no effect and 100 is complete control) [24]: 0
- Plant response rating, Ducksalad (0 to 100 scale, 0 is no effect and 100 is complete control) [25]: 0
- Plant response rating, Sedge, Umbrella (0 to 100 scale, 0 is no effect and 100 is complete control) [26]: 0

Source: patent US20260285850A1, “SUBSTITUTED OXAZOLIDINONES AND IMIDAZOLINONES AS HERBICIDES” (FMC CORPORATION, priority 2023, published 2026)
